# Assay results from US20070167492A1, “Molluscicidal agents” (priority 2003, published 2007).
# “Also recorded” adds a separate entry of the source.
# Key:
# Type in all cases: in vivo
# [1] = system: Winter wheat (Kampa race) seeds; test: Seed germination test of treated winter wheat seeds (rolled in paper); conditions: 3x50 seeds, 6 days at 22° C.
# Procedure, shortened: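 Seeds were disinfected with fludioxonil-containing Beret Gold (2 ml per kg seed) and coated with Sepiret® for formulations unsuitable for coating. Germination of 3×50 seeds rolled in paper was scored after 6 days at continuous 22° C. under a 16 hours light regime.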
# [2] = system: Deroceras reticulatum (grey field slug); test: Example 2: pot re-test, treated winter wheat seed with 5 adult slugs per pot, 7 days
# Source text: Based on the results of the experiment described in Example 1, a selection was made from the various test numbers of that experiment for re-testing, partly to confirm the conclusions of that experiment and to test the unexpected outcome of some test compounds.
# The selection of test numbers (Test No.) used in the present experiment relative to those of the experiment described in Example 1 is shown in Table 7.
# The same seeds as described in Example 1 were sown in earthenware pots with an internal diameter of 20 cm and a height of 18 cm, filled with 7 cm of potting soil (Trio BV, Weesp, The Netherlands) and with a top 2 cm of white quartz sand. A total of 40 winter wheat seeds was placed in each pot, in a pattern of concentric circles on top of the quartz sand, the germ of the seed facing upwards. To each pot a total of 5 adult specimens of the test slug Deroceras reticulatum (grey field slug) were added. The pots were incubated at 18-19° C. with a relative humidity of ±95% and light regime of ±18 hours light/6 hours dark, without artificial lighting. The pots were not irrigated overhead. In total, 4 parallel tests were performed for each test.
# The number of damaged seeds was, the number of plants present (germinated and not eaten or damaged by the slugs), the number of dead slugs and of the number of fecal pellets were determined after 2, 3 and 7 days following the addition of the slugs.
# The data were statistically analysed by using F-tests (α=0.05) and pair-wise Student-tests.
# [3] = system: Deroceras reticulatum (grey field slug); test: Example 1: pot test, treated winter wheat seed with 5 adult slugs per pot, 14 days
# Procedure, shortened: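 Fludioxonil-disinfected winter wheat seed (Kampa, 40 per pot) sown on quartz sand over potting soil with 5 adult slugs per pot; ±15° C., ±90% RH, 12 h light/12 h dark, 4 replicates. Damaged seeds, plants, dead slugs and fecal pellets counted up to day 14; F-tests and Student-tests.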
# [4] = system: Grey field slug (Deroceras reticulatum); test: Example 3:  trial oilseed rape, treated seed, 5 slugs per plot; conditions: doses of 10.4 and 20.8 ml per kg seed
# Source text: The compounds and doses used are described in table 12.
# Trial Data Cultivaton • Location: Glasshouse • Plots consist of: One earthenware pot, diameter 20 cm, height 18 cm • Trial medium: 7 cm of peat based potting compost, covered with silversand • Cultivar: Talent (00) • Thousand seed weight: 7.0 g • Seed treatments: Carried out on 12 Mar. 2004. The fungicide treatment was 4 g a.i. TMTD per kg seed • Sowing date: 9 Apr. 2004 • Number of seeds per pot: 40 • Experimental layout: Randomised block design • Number of replicates: 4 (I to IV), Annex 1 • Temperature during cultivation: 16 hours 20° C., 8 hours 15° C. Trial • Location: Laboratory • Starting date: 20 Apr. 2004 • Slug species: Grey field slug (Deroceras reticulatum). The slugs were collected from the field and only healthy individuals were used. • Number of slugs per plot: 5 • Temperature during trial: ±18° C. • Relative humidity during trial: ±90% Assessment
# After starting the trial, assessments were made on 21, 23 and 26 April. At each assessment, the total numbers of plants, the numbers of attacked plants, the numbers of dead slugs and the numbers of fecal pellets were counted. […] In addition, the numbers of normal plants were counted on 23 and 26 April and the fresh aboveground plant weight per plot was assessed on 27 April. […]
# Data were analysed using analysis of variance and Student's t-distribution with the PPAIR procedure.
# [5] = Example 2, 2 ml formulated per kg seed, 2 days after sowing
# [6] = Example 2, 2 ml formulated per kg seed, 3 days after sowing
# [7] = Example 2, 2 ml formulated per kg seed, 7 days after sowing
# [8] = Example 2, after 2, 3 and 7 days
# [9] = 2 ml formulated per kg seed, 2 days after sowing
# [10] = 2 ml formulated per kg seed, 3 days after sowing
# [11] = 2 ml formulated per kg seed, 7 days after sowing
# [12] = 2 ml formulated per kg seed, 10 days after sowing
# [13] = 2 ml formulated per kg seed, 14 days after sowing
# [14] = 10 ml formulated per kg seed, 2 days after sowing
# [15] = 10 ml formulated per kg seed, 3 days after sowing
# [16] = 10 ml formulated per kg seed, 7 days after sowing
# [17] = 10 ml formulated per kg seed, 10 days after sowing
# [18] = 10 ml formulated per kg seed, 14 days after sowing
smiles,measurement,setting,value
"N#CN=C1SCCN1Cc1ccc(Cl)nc1 [thiacloprid, N-[3-(6-chloropyridin-3-ylmethyl)thiazolidin-2-ylidene]cyanamide]",Percentage germinated,[1]; 2 ml formulated per kg seed,73%
same,Percentage germinated,[1]; 10 ml formulated per kg seed,58%
same,result of seed treatment against slugs (conclusion),[2]; Example 2,good results
same,percentage of damaged seeds after 7 days,"[2]; Example 2, 2 ml formulated per kg seed",14%
same,Mean number of damaged seeds per pot,[2]; [5],3.5
same,Mean number of dead slugs per pot,[2]; [5],0
same,Mean number of damaged seeds per pot,[2]; [6],4.5
same,Mean number of dead slugs per pot,[2]; [6],0
same,Mean number of damaged seeds per pot,[2]; [7],5.8
same,Mean number of dead slugs per pot,[2]; [7],0.3
same,number of fecal pellets per pot relative to the untreated control,[2]; [8],significant reduction in the number of fecal pellets
same,plants present relative to the untreated seed,[2]; [8],significantly more plants present
same,number of damaged seeds relative to the untreated seed,"[2]; Example 2, two days after the start",significant reduction in the number of damaged seeds
same,Mean number of fecal pellets per pot,"[2]; dosage 2 ml, 2 days",8
same,Mean number of plants present per pot,"[2]; dosage 2 ml, 2 days",12.5
same,Mean number of fecal pellets per pot,"[2]; dosage 2 ml, 3 days",14
same,Mean number of plants present per pot,"[2]; dosage 2 ml, 3 days",24.0
same,Mean number of fecal pellets per pot,"[2]; dosage 2 ml, 7 days",17
same,Mean number of plants present per pot,"[2]; dosage 2 ml, 7 days",29.5
same,number of utilizable plants after 7 days,"[2]; dosage 2 ml, 7 days",23.5
same,number of utilizable plants after 14 days,[3]; 2 ml formulated per kg seed,28.8
same,percentage of damaged seeds after 14 days,[3]; 2 ml formulated per kg seed,13%
same,Mean number of damaged seeds per pot,[3]; [9],1.3
same,Mean number of dead slugs per pot,[3]; [9],0
same,Mean number fecal pellets per pot,[3]; [10],14
same,Mean number of damaged seeds per pot,[3]; [10],3.3
same,Mean number of dead slugs per pot,[3]; [10],0.3
same,Mean number of plants present per pot,[3]; [10],6.3
same,Mean number fecal pellets per pot,[3]; [11],23
same,Mean number of damaged seeds per pot,[3]; [11],7.5
same,Mean number of dead slugs per pot,[3]; [11],0.5
same,Mean number of plants present per pot,[3]; [11],27.8
same,Mean number fecal pellets per pot,[3]; [12],17
same,Mean number of damaged seeds per pot,[3]; [12],5.5
same,Mean number of dead slugs per pot,[3]; [12],0.5
same,Mean number of plants present per pot,[3]; [12],28.5
same,Mean number fecal pellets per pot,[3]; [13],21
same,Mean number of damaged seeds per pot,[3]; [13],5.3
same,Mean number of dead slugs per pot,[3]; [13],0.8
same,Mean number of plants present per pot,[3]; [13],29.3
same,number of utilizable plants after 14 days,[3]; 10 ml formulated per kg seed,34.5
same,percentage of damaged seeds after 14 days,[3]; 10 ml formulated per kg seed,8%
same,Mean number of damaged seeds per pot,[3]; [14],0.5
same,Mean number of dead slugs per pot,[3]; [14],0
same,Mean number fecal pellets per pot,[3]; [15],5
same,Mean number of damaged seeds per pot,[3]; [15],1.5
same,Mean number of dead slugs per pot,[3]; [15],0
same,Mean number of plants present per pot,[3]; [15],10.5
same,Mean number fecal pellets per pot,[3]; [16],8
same,Mean number of damaged seeds per pot,[3]; [16],3.3
same,Mean number of dead slugs per pot,[3]; [16],0
same,Mean number of plants present per pot,[3]; [16],32.8
same,Mean number fecal pellets per pot,[3]; [17],7
same,Mean number of damaged seeds per pot,[3]; [17],3.3
same,Mean number of dead slugs per pot,[3]; [17],0.3
same,Mean number of plants present per pot,[3]; [17],34.0
same,Mean number fecal pellets per pot,[3]; [18],9
same,Mean number of damaged seeds per pot,[3]; [18],3.3
same,Mean number of dead slugs per pot,[3]; [18],0.3
same,Mean number of plants present per pot,[3]; [18],34.8
same,damaged seeds relative to untreated control seed,"[3]; Example 1, 2 or 10 ml per kg of seed, at each observation (after 2 days only 10 ml)",less damaged seeds than the untreated control seed
same,protection of the wheat against slugs (conclusion),"[3]; Example 1, already at a low dose of 2 ml",good protection of the wheat against slugs
same,fecal pellets relative to the untreated seed,"[3]; Example 1, at each dosage and at each observation",large and significant reduction in the number of fecal pellets; also recorded: significantly less fecal pellets
same,plants present and utilizable plants relative to the untreated seed,"[3]; Example 1, both 2 and 10 ml per kg of seed, after 7 days",significantly more plants present and utilizable plants
same,"comparison with imidacloprid (fecal pellets, damaged seeds, plants present, utilizable plants)","[3]; Example 1, two weeks after the start",scored surprisingly better than the related compound imidacloprid
same,damage (conclusion),[4],decreases the damage
